Reference: ChEMBL document CHEMBL2021794, “Synthesis, σ₁, σ₂-receptors binding affinity and antiproliferative action of new C1-substituted adamantanes” (Bioorg Med Chem, 2012)
Active and inactive are the calls of the source. No cut-off for these calls is given here.

Assays:
[1] = test system: DU-145; experiment: Cytotoxicity against human DU145 cells after 48 hrs by trypan blue assay; format: functional, cell-based
[2] = test system: DU-145; experiment: Growth inhibition of human DU145 cells after 48 hrs by SRB assay; format: functional; conditions: DU-145, 48 h
[3] = test system: BXPC-3; experiment: Cell cycle arrest in human BxPC3 cells assessed as accumulation at < G1 phase at 50 uM after 24 hrs by propidium iodide staining based flow cytometry (reference value: 9%); format: functional
[4] = test system: BXPC-3; experiment: Induction of apoptosis in human BxPC3 cells assessed as healthy cells at 50 uM after 24 hrs by Annexin V/7-AAD staining based flow cytometry (reference value: 77%); format: functional
[5] = test system: IGROV-1; experiment: Cell cycle arrest in human IGROV1 cells assessed as accumulation at < G1 phase at 0.5 uM after 24 hrs by propidium iodide staining based flow cytometry (reference value: 4%); format: functional
[6] = test system: IGROV-1; experiment: Cell cycle arrest in human IGROV1 cells assessed as accumulation at G2 phase at 0.5 uM after 24 hrs by propidium iodide staining based flow cytometry (reference value: 19%); format: functional
[7] = test system: IGROV-1; experiment: Cell cycle arrest in human IGROV1 cells assessed as accumulation at >G2 phase at 0.5 uM after 24 hrs by propidium iodide staining based flow cytometry (reference value: 21%); format: functional
[8] = test system: IGROV-1; experiment: Induction of apoptosis in human IGROV1 cells assessed as healthy cells at 0.5 uM after 24 hrs by Annexin V/7-AAD staining based flow cytometry (reference value: 86%); format: functional
[9] = test system: IGROV-1; experiment: Induction of apoptosis in human IGROV1 cells assessed as early apoptotic cells at 0.5 uM after 24 hrs by Annexin V/7-AAD staining based flow cytometry (reference value: 9%); format: functional
[10] = test system: IGROV-1; experiment: Induction of apoptosis in human IGROV1 cells assessed as total apoptotic death cells at 0.5 uM after 24 hrs by Annexin V/7-AAD staining based flow cytometry (reference value: 13%); format: functional
[11] = test system: IGROV-1; experiment: Cell cycle arrest in human IGROV1 cells assessed as accumulation at G2 phase at 5 uM after 24 hrs by propidium iodide staining based flow cytometry (reference value: 19%); format: functional
[12] = test system: IGROV-1; experiment: Cell cycle arrest in human IGROV1 cells assessed as accumulation at >G2 phase at 5 uM after 24 hrs by propidium iodide staining based flow cytometry (reference value: 21%); format: functional
[13] = test system: IGROV-1; experiment: Induction of apoptosis in human IGROV1 cells assessed as late apoptotic cells at 5 uM after 24 hrs by Annexin V/7-AAD staining based flow cytometry (reference value: 4%); format: functional
[14] = test system: IGROV-1; experiment: Cell cycle arrest in human IGROV1 cells assessed as accumulation at S phase at 15 uM after 24 hrs by propidium iodide staining based flow cytometry (reference value: 29%); format: functional
[15] = test system: IGROV-1; experiment: Induction of apoptosis in human IGROV1 cells assessed as early apoptotic cells at 15 uM after 24 hrs by Annexin V/7-AAD staining based flow cytometry (reference value: 9%); format: functional
[16] = test system: IGROV-1; experiment: Induction of apoptosis in human IGROV1 cells assessed as early apoptotic cells at 50 uM after 24 hrs by Annexin V/7-AAD staining based flow cytometry (reference value: 9%); format: functional
[17] = test system: IGROV-1; experiment: Induction of apoptosis in human IGROV1 cells assessed as late apoptotic cells at 50 uM after 24 hrs by Annexin V/7-AAD staining based flow cytometry (reference value: 4%); format: functional
[18] = test system: PC-3; experiment: Cell cycle arrest in human PC3 cells assessed as accumulation at G1 phase at 0.5 uM after 24 hrs by propidium iodide staining based flow cytometry (reference value: 36%); format: functional
[19] = test system: PC-3; experiment: Induction of apoptosis in human PC3 cells assessed as early apoptotic cells at 0.5 uM after 24 hrs by Annexin V/7-AAD staining based flow cytometry (reference value: 5%); format: functional
[20] = test system: PC-3; experiment: Induction of apoptosis in human PC3 cells assessed as late apoptotic cells at 5 uM after 24 hrs by Annexin V/7-AAD staining based flow cytometry (reference value: 2%); format: functional
[21] = test system: PC-3; experiment: Induction of apoptosis in human PC3 cells assessed as cleaved caspase-3 containing cells at 15 uM after 24 hrs by FACS analysis (reference value: 3%); format: functional
[22] = test system: PC-3; experiment: Induction of apoptosis in human PC3 cells assessed as healthy cells at 15 uM after 24 hrs by Annexin V/7-AAD staining based flow cytometry (reference value: 92%); format: functional
[23] = test system: PC-3; experiment: Induction of apoptosis in human PC3 cells assessed as late apoptotic cells at 15 uM after 24 hrs by Annexin V/7-AAD staining based flow cytometry (reference value: 2%); format: functional
[24] = test system: PC-3; experiment: Cell cycle arrest in human PC3 cells assessed as accumulation at G1 phase at 50 uM after 24 hrs by propidium iodide staining based flow cytometry (reference value: 36%); format: functional
[25] = test system: PC-3; experiment: Cell cycle arrest in human PC3 cells assessed as accumulation at S phase at 50 uM after 24 hrs by propidium iodide staining based flow cytometry (reference value: 42%); format: functional
[26] = test system: PC-3; experiment: Induction of apoptosis in human PC3 cells assessed as cleaved caspase-3 containing cells at 50 uM after 24 hrs by FACS analysis (reference value: 3%); format: functional
[27] = test system: PC-3; experiment: Induction of apoptosis in human PC3 cells assessed as early apoptotic cells at 50 uM after 24 hrs by Annexin V/7-AAD staining based flow cytometry (reference value: 5%); format: functional
[28] = test system: IGROV-1; experiment: Growth inhibition of human IGROV1 cells after 48 hrs by SRB assay; format: functional; conditions: IGROV-1, 48 h
[29] = test system: SF-295; experiment: Growth inhibition of human SF295 cells after 48 hrs by SRB assay; format: functional; conditions: SF-295, 48 h
[30] = test system: Mus musculus; experiment: Toxicity in CD1 mouse assessed as mortality at 40 mg/kg, ip after 3 to 4 weeks chronic treatment; format: organism-based; design: dose 40 mg/kg, route intraperitoneal; conditions: in vivo
[31] = test system: Mus musculus; experiment: Toxicity in SCID mouse assessed as mortality at 40 mg/kg, ip after 3 to 4 weeks chronic treatment; format: organism-based; design: dose 40 mg/kg, route intraperitoneal; conditions: in vivo
[32] = test system: BXPC-3; experiment: Cell cycle arrest in human BxPC3 cells assessed as accumulation at G2 phase at 0.5 uM after 24 hrs by propidium iodide staining based flow cytometry (reference value: 12%); format: functional
[33] = test system: BXPC-3; experiment: Cell cycle arrest in human BxPC3 cells assessed as accumulation at < G1 phase at 5 uM after 24 hrs by propidium iodide staining based flow cytometry (reference value: 9%); format: functional
[34] = test system: BXPC-3; experiment: Cell cycle arrest in human BxPC3 cells assessed as accumulation at G1 phase at 5 uM after 24 hrs by propidium iodide staining based flow cytometry (reference value: 41%); format: functional
[35] = test system: BXPC-3; experiment: Induction of apoptosis in human BxPC3 cells assessed as late apoptotic cells at 5 uM after 24 hrs by Annexin V/7-AAD staining based flow cytometry (reference value: 9%); format: functional
[36] = test system: BXPC-3; experiment: Cell cycle arrest in human BxPC3 cells assessed as accumulation at < G1 phase at 15 uM after 24 hrs by propidium iodide staining based flow cytometry (reference value: 9%); format: functional
[37] = test system: BXPC-3; experiment: Cell cycle arrest in human BxPC3 cells assessed as accumulation at G2 phase at 15 uM after 24 hrs by propidium iodide staining based flow cytometry (reference value: 12%); format: functional
[38] = read-out: LC50 (the source's name)

With `CN1CCN(c2ccc(C(c3ccccc3)C34CC5CC(CC(C5)C3)C4)cc2)CC1` (stereo not drawn) as the molecule, how does the Activity [1] read?
The Activity was “Active”.

What about the GI50 [2] of the same molecule?
Its GI50 is 6.43 µM.

What about the TGI [2] of the same molecule?
Its TGI is 65.5 µM.

What about the CC50 [2, 38] of the same molecule?
Its CC50 is 100 µM.

What about the Activity [3] of the same molecule?
The Activity was 25%.

And the Activity [4]?
The Activity was 26%.

And the Activity [5]?
The Activity was 3%.

What about the Activity [6] of the same molecule?
The Activity was 20%.

And the Activity [7]?
The Activity was 20%.

And the Activity [8]?
The Activity was 89%.

And the Activity [9]?
The Activity was 8%.

What about the Activity [10] of the same molecule?
The Activity was 10%.

What about the Activity [11] of the same molecule?
The Activity was 19%.

And the Activity [12]?
Its Activity is 21%.

What about the Activity [13] of the same molecule?
Its Activity is 3%.

And the Activity [14]?
Its Activity is 27%.

What about the Activity [15] of the same molecule?
The Activity was 18%.

What about the Activity [16] of the same molecule?
Its Activity is 46%.

What about the Activity [17] of the same molecule?
Its Activity is 16%.

And the Activity [18]?
Its Activity is 33%.

And the Activity [19]?
Its Activity is 3%.

And the Activity [20]?
The Activity was 2%.

And the Activity [21]?
The Activity was 3%.

What about the Activity [22] of the same molecule?
Its Activity is 89%.

What about the Activity [23] of the same molecule?
Its Activity is 3%.

What about the Activity [24] of the same molecule?
The Activity was 35%.

What about the Activity [25] of the same molecule?
Its Activity is 34%.

And the Activity [26]?
Its Activity is 18%.

What about the Activity [27] of the same molecule?
Its Activity is 24%.

And the GI50 [28]?
Its GI50 is 8.83 µM.

What about the TGI [28] of the same molecule?
The TGI was 58.5 µM.

And the CC50 [28, 38]?
The CC50 was 100 µM.

What about the GI50 [29] of the same molecule?
The GI50 was 11 µM.

And the TGI [29]?
Its TGI is 48.1 µM.

What about the CC50 [29, 38] of the same molecule?
The CC50 was 85.2 µM.

And the Activity [30]?
Its Activity is “Non-toxic”.

What about the Activity [31] of the same molecule?
Its Activity is “Non-toxic”.

What about the Activity [32] of the same molecule?
Its Activity is 12%.

And the Activity [33]?
The Activity was 8%.

And the Activity [34]?
Its Activity is 43%.

And the Activity [35]?
The Activity was 17%.

And the Activity [36]?
Its Activity is 8%.

What about the Activity [37] of the same molecule?
Its Activity is 16%.
